Results published in the supplement of paper PMC10307832.

Assays:
Assay in all cases: relative viability (nuclei count vs DMSO), 5 days (fraction); higher = more cells survive
NCI-H661 = test system: NCI-H661
Procedure, shortened: (§1)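 The day after seeding in 1536-well plates, lung cancer cell lines were treated by pin tool with a single drug, or with a fixed anchor-drug dose together with five library-drug doses (not always all listed) in √10 steps. After 5 days, a combined fix-and-stain solution (final 0.05% Triton X-100, 1% formaldehyde, 1 ug/ml Hoechst) was added. Nuclei counted on 4× images gave relative viability as treated counts over vehicle counts, reported as the median of duplicate plates.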

NCI-H441 = test system: NCI-H441
Procedure, shortened: as §1

NCI-H460 = test system: NCI-H460
Procedure, shortened: as §1

ABC-1 = test system: ABC-1
Procedure, shortened: as §1

NCI-H727 = test system: NCI-H727
Procedure, shortened: as §1

HCC-366 = test system: HCC-366
Procedure, shortened: as §1

NCI-H1666 = test system: NCI-H1666
Procedure, shortened: as §1

NCI-H3122 = test system: NCI-H3122
Procedure, shortened: as §1

NCI-H2009 = test system: NCI-H2009
Procedure, shortened: as §1

LK-2 = test system: LK-2
Procedure, shortened: as §1

BEN = test system: BEN
Procedure, shortened: as §1

PC-14 = test system: PC-14
Procedure, shortened: as §1

NCI-H1650 = test system: NCI-H1650
Procedure, shortened: as §1

COR-L 105 = test system: COR-L 105
Procedure, shortened: as §1

SW 900 = test system: SW 900
Procedure, shortened: as §1

EKVX = test system: EKVX
Procedure, shortened: as §1

CAL-12T = test system: CAL-12T
Procedure, shortened: as §1

HARA = test system: HARA
Procedure, shortened: as §1

NCI-H1437 = test system: NCI-H1437
Procedure, shortened: as §1

NCI-H2170 = test system: NCI-H2170
Procedure, shortened: as §1

201T = test system: 201T
Procedure, shortened: as §1

LOU-NH91 = test system: LOU-NH91
Procedure, shortened: as §1

`O=c1cc(N2CCOCC2)oc2c(-c3cccc4c3sc3ccccc34)cccc12` + N=C(N)NC(=N)NCCc1ccccc1 [Phenformin] (partner 250 µM) showed a relative viability (NCI-H661; first compound 0.01 µM) of 0.291, a relative viability (NCI-H661; first compound 0.03162 µM) of 0.278 and a relative viability (NCI-H661; first compound 0.1 µM) of 0.28. It also gave a relative viability (NCI-H661; first compound 0.3162 µM) of 0.269, a relative viability (NCI-H661; first compound 1 µM) of 0.285 and a relative viability (NCI-H441; first compound 0.01 µM) of 0.862. It also gave a relative viability (NCI-H441; first compound 0.03162 µM) of 0.805, a relative viability (NCI-H441; first compound 0.1 µM) of 0.861 and a relative viability (NCI-H441; first compound 0.3162 µM) of 0.811. For the same molecule, the relative viability (NCI-H441; first compound 1 µM) was 0.771, the relative viability (NCI-H460; first compound 0.01 µM) was 0.285 and the relative viability (NCI-H460; first compound 0.03162 µM) was 0.522. For the same molecule, the relative viability (NCI-H460; first compound 0.1 µM) was 0.558, the relative viability (NCI-H460; first compound 0.3162 µM) was 0.505 and the relative viability (NCI-H460; first compound 1 µM) was 0.544. For the same molecule, the relative viability (ABC-1; first compound 0.01 µM) was 0.228, the relative viability (ABC-1; first compound 0.03162 µM) was 0.258 and the relative viability (ABC-1; first compound 0.1 µM) was 0.225. It also gave a relative viability (ABC-1; first compound 0.3162 µM) of 0.28, a relative viability (ABC-1; first compound 1 µM) of 0.266 and a relative viability (NCI-H727; first compound 0.01 µM) of 0.645. The relative viability (NCI-H727; first compound 0.03162 µM) was 0.546, the relative viability (NCI-H727; first compound 0.1 µM) was 0.475 and the relative viability (NCI-H727; first compound 0.3162 µM) was 0.641. The relative viability (NCI-H727; first compound 1 µM) was 0.581, the relative viability (HCC-366; first compound 0.01 µM) was 0.608 and the relative viability (HCC-366; first compound 0.03162 µM) was 0.697. For the same molecule, the relative viability (HCC-366; first compound 0.1 µM) was 0.661, the relative viability (HCC-366; first compound 0.3162 µM) was 0.601 and the relative viability (HCC-366; first compound 1 µM) was 0.668. For the same molecule, the relative viability (NCI-H1666; first compound 0.01 µM) was 0.566, the relative viability (NCI-H1666; first compound 0.03162 µM) was 0.607 and the relative viability (NCI-H1666; first compound 0.1 µM) was 0.526. The relative viability (NCI-H1666; first compound 0.3162 µM) was 0.54, the relative viability (NCI-H1666; first compound 1 µM) was 0.584 and the relative viability (NCI-H3122; first compound 0.01 µM) was 0.347. For the same molecule, the relative viability (NCI-H3122; first compound 0.03162 µM) was 0.374, the relative viability (NCI-H3122; first compound 0.1 µM) was 0.38 and the relative viability (NCI-H3122; first compound 0.3162 µM) was 0.36. The relative viability (NCI-H3122; first compound 1 µM) was 0.396, the relative viability (NCI-H2009; first compound 0.01 µM) was 0.471 and the relative viability (NCI-H2009; first compound 0.03162 µM) was 0.504. The relative viability (NCI-H2009; first compound 0.1 µM) was 0.487, the relative viability (NCI-H2009; first compound 0.3162 µM) was 0.492 and the relative viability (NCI-H2009; first compound 1 µM) was 0.464. For the same molecule, the relative viability (LK-2; first compound 0.01 µM) was 0.593, the relative viability (LK-2; first compound 0.03162 µM) was 0.404 and the relative viability (LK-2; first compound 0.1 µM) was 0.573. For the same molecule, the relative viability (LK-2; first compound 0.3162 µM) was 0.38, the relative viability (LK-2; first compound 1 µM) was 0.361 and the relative viability (BEN; first compound 0.01 µM) was 0.241. The relative viability (BEN; first compound 0.03162 µM) was 0.305, the relative viability (BEN; first compound 0.1 µM) was 0.27 and the relative viability (BEN; first compound 0.3162 µM) was 0.271. It also gave a relative viability (BEN; first compound 1 µM) of 0.292, a relative viability (PC-14; first compound 0.01 µM) of 0.292 and a relative viability (PC-14; first compound 0.03162 µM) of 0.758. For the same molecule, the relative viability (PC-14; first compound 0.1 µM) was 0.428, the relative viability (PC-14; first compound 0.3162 µM) was 0.902 and the relative viability (PC-14; first compound 1 µM) was 0.361. It also gave a relative viability (NCI-H1650; first compound 0.01 µM) of 0.352, a relative viability (NCI-H1650; first compound 0.03162 µM) of 0.48 and a relative viability (NCI-H1650; first compound 0.1 µM) of 0.346. It also gave a relative viability (NCI-H1650; first compound 0.3162 µM) of 0.449, a relative viability (NCI-H1650; first compound 1 µM) of 0.362 and a relative viability (COR-L 105; first compound 0.01 µM) of 0.462. It also gave a relative viability (COR-L 105; first compound 0.03162 µM) of 0.497, a relative viability (COR-L 105; first compound 0.1 µM) of 0.607 and a relative viability (COR-L 105; first compound 0.3162 µM) of 0.568. The relative viability (COR-L 105; first compound 1 µM) was 0.383, the relative viability (SW 900; first compound 0.01 µM) was 0.291 and the relative viability (SW 900; first compound 0.03162 µM) was 0.635. It also gave a relative viability (SW 900; first compound 0.1 µM) of 0.485, a relative viability (SW 900; first compound 0.3162 µM) of 0.551 and a relative viability (SW 900; first compound 1 µM) of 0.56. It also gave a relative viability (EKVX; first compound 0.01 µM) of 0.228, a relative viability (EKVX; first compound 0.03162 µM) of 0.238 and a relative viability (EKVX; first compound 0.1 µM) of 0.201. The relative viability (EKVX; first compound 0.3162 µM) was 0.216, the relative viability (EKVX; first compound 1 µM) was 0.199 and the relative viability (CAL-12T; first compound 0.01 µM) was 0.519. For the same molecule, the relative viability (CAL-12T; first compound 0.03162 µM) was 0.629, the relative viability (CAL-12T; first compound 0.1 µM) was 0.607 and the relative viability (CAL-12T; first compound 0.3162 µM) was 0.575. It also gave a relative viability (CAL-12T; first compound 1 µM) of 0.547, a relative viability (HARA; first compound 0.01 µM) of 0.414 and a relative viability (HARA; first compound 0.03162 µM) of 0.472. For the same molecule, the relative viability (HARA; first compound 0.1 µM) was 0.416, the relative viability (HARA; first compound 0.3162 µM) was 0.502 and the relative viability (HARA; first compound 1 µM) was 0.482. For the same molecule, the relative viability (NCI-H1437; first compound 0.01 µM) was 0.32, the relative viability (NCI-H1437; first compound 0.03162 µM) was 0.323 and the relative viability (NCI-H1437; first compound 0.1 µM) was 0.298. For the same molecule, the relative viability (NCI-H1437; first compound 0.3162 µM) was 0.338, the relative viability (NCI-H1437; first compound 1 µM) was 0.282 and the relative viability (NCI-H2170; first compound 0.01 µM) was 0.401. It also gave a relative viability (NCI-H2170; first compound 0.03162 µM) of 0.422, a relative viability (NCI-H2170; first compound 0.1 µM) of 0.462 and a relative viability (NCI-H2170; first compound 0.3162 µM) of 0.384. For the same molecule, the relative viability (NCI-H2170; first compound 1 µM) was 0.39, the relative viability (201T; first compound 0.01 µM) was 0.289 and the relative viability (201T; first compound 0.03162 µM) was 0.488. The relative viability (201T; first compound 0.1 µM) was 0.469, the relative viability (201T; first compound 0.3162 µM) was 0.441 and the relative viability (201T; first compound 1 µM) was 0.43. It also gave a relative viability (LOU-NH91; first compound 0.01 µM) of 0.58, a relative viability (LOU-NH91; first compound 0.03162 µM) of 0.688 and a relative viability (LOU-NH91; first compound 0.1 µM) of 0.689. It also gave a relative viability (LOU-NH91; first compound 0.3162 µM) of 0.791 and a relative viability (LOU-NH91; first compound 1 µM) of 0.618.
